Reference: publication PMC3388351, “Pseudolaric Acid B Induces Caspase-Dependent and Caspase-Independent Apoptosis in U87 Glioblastoma Cells” (Evidence-based Complementary and Alternative Medicine : eCAM, 2012)

Tests used:
U87 glioblastoma cells [1] = assay: Cell viability by MTT assay; assay type: cell-based; conditions: 24 h; for IC50: read-out: IC50, growth inhibition of U87 glioblastoma cells
Description: U87 glioblastoma cells were obtained from American Type Culture Collection (ATCC, USA) and maintained in Dulbecco's Modified Eagle's Medium (DMEM) supplemented with 10% fatal bovine serum (FBS) in 5% CO2 at 37°C. Cells were treated with various concentrations of PLAB dissolved in DMSO with a final DMSO concentration of 1% or with DMSO alone for 24 h. DMSO-treated cells were used as control.
Cell viability was assessed by MTT assay and live/dead assay as described by us previously. Briefly U87 cells were treated with various concentrations of PLAB (1 to 100 μM) or Doxorubicin (0.25 to 20 μM) for 24 h. Following treatment, the MTT reagent was added (500 μg/mL) and cells were further incubated at 37°C for 4 h. Subsequently 150 μL DMSO was added to dissolve farmazan crystals and absorbance was measured at 570 nm in a microplate reader (Thermo Scientific). Results were expressed as the percentage of MTT reduction, assuming that the absorbance of control cells was 100%.

U87 glioblastoma cells [2] = assay: Live/dead assay, calcein AM and PI, flow cytometry; assay type: cell-based; conditions: 24 h, read-out: viability of U87 glioblastoma cells (live/dead assay)
Description: Furthermore, live and dead cells were quantified using the fluorescent probes calcein AM and PI. Calcein AM is cell membrane permeable and stains only viable cells, whereas PI is cell membrane impermeable and stains only dead cells. After treatment, cells were collected, washed with phosphate buffered saline (PBS) and incubated with PBS solution containing 2 μM calcein AM and 4 μM PI in the dark for 20 min at room temperature. After washing, cells were resuspended in PBS and analyzed for the fluorescence of calcein and PI by flow cytometry (Beckman Coulter, Epics XL).

U87 glioblastoma cells [3] = assay: Nuclear morphology / DNA fragmentation by Hoechst 33258 staining; assay type: cell-based; conditions: 5 and 10 μM, 24 h, Hoechst 33258, dose-dependent
Description: After treatment with 5 and 10 μM PLAB for 24 h, U87 cells were collected by centrifugation at 1500 rpm for 5 min, washed twice with PBS and fixed with 4% paraformaldehyde at room temperature for 30 min. After centrifugation, cells were washed with PBS, stained with Hoechst 33258 (50 μg/mL) and incubated at 37°C for 30 min. At the end of incubation, cells were washed and resuspended in PBS for the observation of nuclear morphology under fluorescence microscope (Olympus 1 × 71). At the end, 100 nuclei from control and PLAB-treated groups were counted microscopically for the percentage of cleaved nuclei.

U87 glioblastoma cells [4] = assay: Flow cytometry analysis of apoptosis (Annexin V/PI); assay type: cell-based; conditions: 24 h, in % (unit assumed)
Description: U87 cells were treated with 5 and 10 μM PLAB in the presence or absence of z-VAD-fmk and PFTα for 24 h. After treatment, both adherent and floating cells were collected, washed with PBS, and resuspended in 200 μL of binding buffer containing 5 μL Annexin V and put in the dark for 10 min according to the kit instructions (Beyotime, Shanghai, China). After incubation, cells were labeled with 10 μL PI and samples were immediately analyzed by flow cytometry (Beckman Coulter, Epics XL).

U87 glioblastoma cells [5] = assay: Flow cytometry analysis of cell cycle (PI); assay type: cell-based; conditions: 24 h; for cells in G2/M phase: Mean ± SEM, n = 3, control 17.63 ± 2.06
Description: U87 cells were treated with 5 and 10 μM PLAB for 24 h. Following treatment, cells were harvested, washed with PBS, and fixed with 70% ethanol at 4°C for overnight. After washing twice with PBS, cells were stained with a solution containing 50 μg/mL PI and 100 μg/mL RNase A for 30 min in the dark, at room temperature. The DNA contents were analyzed by flow cytometry (Beckman Coulter, Epics XL).

[6] = system: polymeric tubulin, cyclin B1, CDK1/Cdc2 in U87 glioblastoma cells; assay: Western blot of G2/M phase cell cycle regulators; assay type: cell-based; conditions: 10 μM PLAB, 3 μM colchicine, 24 h
Description: (§1) After drug treatment, adherent and floating cells were collected and proteins were isolated as described previously. Nuclear and cytosolic proteins were extracted using cytosolic and nuclear extraction kit (Keygen, China) according to the manufacturer's instructions. 40 μg proteins were electrophoresed on 10% SDS-PAGE and transferred to PVDF membrane. After blocking with 5% (w/v) nonfat milk and washing with Tris-buffered saline-Tween solution (TBST), membranes were incubated overnight at 4°C with p53 (1 : 1000), BCL-2 (1 : 1000), Bax (1 : 300), Cytochrome c (1 : 200), Caspase-3 (1 : 500), Tubulin (1 : 500), Cyclin B1 (1 : 300), Cdc2 (1 : 300), β-actin (1 : 400), and AIF (1 : 1000) antibodies, respectively. After washing, the blots were incubated with horseradish peroxidase-conjugated goat anti-rabbit IgG or goat anti-mouse IgG or rabbit anti-goat IgG secondary antibodies (1 : 1000, Santa Cruz) for 1 h at room temperature. After washing with TBST, signals were detected using ECL plus chemiluminescence kit on X-ray film (Millipore Corporation, Billerica, USA).
Briefly the cell pellet was resuspended in 0.4 mL monomeric extraction buffer (20 mM Tris-HCl, pH 6.8, 0.14 M NaCl, 1 mM MgCl2, 1 mM EGTA, 0.5% Nonidet P-40 (NP-40), 0.5 mM PMSF, and 4 μg/mL paclitaxel), centrifuge at 12,000 ×g for 10 min and supernatant was removed. The pellets containing polymeric tubulin were resuspended in WIP cell lysis reagent (BIOSS, Beijing Biosynthesis Biotechnology Co., Ltd.) for 30 min and the supernatants (polymeric tubulins) were collected by centrifugation at 12,000 ×g for 10 min. The polymeric tubulins were subjected to Western blot analysis.

[7] = system: p53, Bcl-2, Bax, Caspase-3, PARP, cytochrome c, AIF in U87 glioblastoma cells; assay: Western blot of apoptosis regulators; assay type: cell-based; conditions: 24 h
Description: as §1

Kunming mice = assay: In vivo organ toxicity (liver, kidneys, body weight, serum biomarkers); parameters: species or system mouse; conditions: 25 mg/kg intraperitoneally daily for 14 days
Description: In vivo studies were conducted on 12-14 week old Kunming mice weighing 43-45 g. The mice were maintained in a specific pathogen-free grade animal facility on a 12 h light/dark cycles at 25 ± 2°C. Mouse procedures were approved by the Experimental Animal Committee of Jilin University. Mice were divided into two groups. Group A (n = 5) administered with 50 μL DMSO intraperitoneally; Group B (n = 5) administered with PLAB (25 mg/kg body weight) in 50 μL DMSO intraperitoneally. The experiment was conducted over a period of two weeks. DMSO or drug was administered daily for 14 days, once a day. At the first and last day of the experiment, the body weight of each mouse was measured. At the end of experiment, mice were anesthetized using Pentobarbital sodium (50 mg/kg ip), blood was collected via cardiac puncture, allowed to clot for 10 min, centrifuge at 1000 ×g for 10 min at room temperature. Serum was separated and stored at -20°C until analysis. The liver and kidneys were excised and processed for hematoxylin and eosin staining followed standard procedures. The toxicological effect of PLAB on liver function was assessed by measuring the serum levels of AST, ALT and TBIL. Nephrotoxicity was determined by measuring the serum levels of BUN and Cr. These biochemical parameters were determined by an automated biochemical analyzer ([…] 7170, Japan).

tumor in nude mice = conditions: 15 mg/kg and 25 mg/kg; ref Wong et al. [14]; cited from earlier work

COc1cccc2c1C(=O)c1c(O)c3c(c(O)c1C2=O)C[C@@](O)(C(=O)CO)C[C@@H]3O[C@H]1C[C@H](N)[C@H](O)[C@H](C)O1 [Doxorubicin, reference compound]
IC50 (U87 glioblastoma cells [1]): 1.8 µM

COC(=O)C1=CC[C@@]23CC[C@@H]([C@@](C)(/C=C/C=C(\C)C(=O)O)OC2=O)[C@@]3(OC(C)=O)CC1 [PLAB, Pseudolaric acid B]
inhibition at 100 µM (U87 glioblastoma cells [1]; 100 μM, read-out: inhibition rate): > 85% | IC50 (U87 glioblastoma cells [1]): ~10 µM | viability at 5 µM (U87 glioblastoma cells [2]): 74.7 ± 1.83% | viability at 10 µM (U87 glioblastoma cells [2]): 56.9 ± 3.47% | nuclear morphological changes (U87 glioblastoma cells [3]): induced obvious nuclear morphological changes including nuclear shrinkage and DNA fragmentation | apoptosis rate (U87 glioblastoma cells [4]; 5 μM, Mean ± SEM, n = 3, control 2.52 ± 0.49): 24.43 ± 1.50 | apoptosis rate (U87 glioblastoma cells [4]; 10 μM PLAB with general caspase inhibitor z-VAD-fmk (20 μM)): 16.92 ± 1.30 | apoptosis rate (U87 glioblastoma cells [4]; 10 μM PLAB with p53 inhibitor PFTα (20 μM)): 33.42 ± 2.85 | apoptosis rate (U87 glioblastoma cells [4]; 10 μM, Mean ± SEM, n = 3, control 2.52 ± 0.49): 50.12 ± 3.42 | cells in G2/M phase (U87 glioblastoma cells [5]; 5 μM): 42.25 ± 2.95 | cells in G2/M phase (U87 glioblastoma cells [5]; 10 μM): 67.32 ± 1.83 | effect of caspase inhibitor on PLAB-induced mitotic arrest (U87 glioblastoma cells [5]; PLAB with z-VAD-fmk (20 μM)): did not prevent mitotic arrest | expression of Cdk1 (Cdc2) [6]: no change in the expression of Cdk1 (Cdc2) | expression of cyclin B1 [6]: increased the expression of cyclin B1 | expression of polymeric tubulin (tubulin polymerization) [6]: downregulated polymeric tubulin | PARP cleavage [7]: cleavage of PARP into 85 kDa protein | caspase-3 cleavage [7]: cleaved the caspase-3 into 17 kDa and 12 kDa proteins | expression of Bax [7]: increased expression of Bax | expression of Bcl-2 [7]: remarkably decreased | expression of cytochrome c in cytosol ([7]; cytosolic proteins): increased the expression of cytochrome c in cytosol | expression of p53 ([7]; dose-dependent): markedly increased the expression of p53 | AIF nuclear translocation ([7]; nuclear proteins): increased the expression of AIF in nucleus dose-dependently | histopathological changes in liver and kidneys (Kunming mice; hematoxylin and eosin staining): No obvious morphological changes | TBIL, serum (Kunming mice; n = 5, Mean ± SEM, control 1.0 ± 0.12, n.s.): 1.2 ± 0.26 n.s. μmol/L | BUN, serum (Kunming mice; n = 5, Mean ± SEM, control 10.94 ± 3.01, n.s.): 9.45 ± 2.53 n.s. mmol/L | Cr, serum (Kunming mice; n = 5, Mean ± SEM, control 27.4 ± 2.17, n.s.): 36.5 ± 1.99 n.s. μmol/L | ALT, serum (Kunming mice; n = 5, Mean ± SEM, control 47.30 ± 3.70, n.s.): 55.45 ± 4.35 n.s. U/L | AST, serum (Kunming mice; n = 5, Mean ± SEM, control 79 ± 5.50, n.s.): 87.66 ± 4.17 n.s. U/L | change in body weight of mice (Kunming mice; versus control group): No obvious change in body weight | growth of tumor in nude mice (tumor in nude mice): significantly inhibited the growth of tumor | toxicity / body weight loss in nude mice (tumor in nude mice): without any sign of toxicity or body weight loss
